System: Escherichia coli ATCC 25922
Test: Minimum inhibitory concentration (MIC), CLSI broth micro-dilution, E. coli
Format: cell-based
Details: Escherichia coli, ATCC25922, 22 h, Table 6, cation adjusted Mueller Hinton Broth + 0.002% Tween-80, 35° C.
In short: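 Antibacterial potency is measured as MIC by the CLSI broth dilution method. Bacteria at OD600 0.0005 in Tween-80-supplemented cation-adjusted Mueller Hinton broth face ten twofold compound dilutions for 22 h at 35° C.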

| SMILES | MIC |
| --- | --- |
| Cc1nc(-c2ccc(OC3CCCCC3)cc2)nc(C)c1C(=O)N[C@@H](CCN)C(=O)N(C)[C@@H]1C(=O)N[C@@H](C)C(=O)N[C@H](C(=O)NCC#N)Cc2ccc(OCCN)c(c2)-c2cc1ccc2O (racemic) [Compound 522, rac-(8S,11S,14S)-3-(2-aminoethoxy)-N-(cyanomethyl)-18-hydroxy-11-methyl-14-[methyl-[rac-(2S)-4-amino-2-[[2-[4-(cyclohexoxy)phenyl]-4,6-dimethyl-pyrimidine-5-carbonyl]amino]butanoyl]amino]-10,13-dioxo-9,12-diazatricyclo[13.3.1.12,6]icosa-1(18),2(20),3,5,15(19),16-hexaene-8-carboxamide] | 0.13 µM |
| Cc1nc(N2CCC(OCCC(C)(C)C)CC2)nc(C)c1C(=O)N[C@@H](CCN)C(=O)N(C)[C@@H]1C(=O)N[C@@H](C)C(=O)N[C@H](C(=O)NCC#N)Cc2ccc(OCCN)c(c2)-c2cc1ccc2OCCN (racemic) [Compound 527, rac-(8S,11S,14S)-3,18-bis(2-aminoethoxy)-N-(cyanomethyl)-11-methyl-14-[methyl-[rac-(2S)-4-amino-2-[[2-[4-(3,3-dimethylbutoxy)-1-piperidyl]-4,6-dimethyl-pyrimidine-5-carbonyl]amino]butanoyl]amino]-10,13-dioxo-9,12-diazatricyclo[13.3.1.12,6]icosa-1(18),2(20),3,5,15(19),16-hexaene-8-carboxamide] | 0.38 µM |
| Cc1nc(-c2ccc(OCCC(C)(C)C)cc2)nc(C)c1C(=O)N[C@@H](CCN)C(=O)N(C)[C@@H]1C(=O)N[C@@H](C)C(=O)N[C@H](C(=O)NCC#N)Cc2ccc(OCCN)c(c2)-c2cc1ccc2O (racemic) [Compound 528, rac-(8S,11S,14S)-3-(2-aminoethoxy)-N-(cyanomethyl)-18-hydroxy-11-methyl-14-[methyl-[rac-(2S)-4-amino-2-[[2-[4-(3,3-dimethylbutoxy)phenyl]-4,6-dimethyl-pyrimidine-5-carbonyl]amino]butanoyl]amino]-10,13-dioxo-9,12-diazatricyclo[13.3.1.12,6]icosa-1(18),2(20),3,5,15(19),16-hexaene-8-carboxamide] | 0.063 µM |
| CCCCc1ccc(-c2cc(N)c(C(=O)N[C@@H](CCN)C(=O)N(C)[C@@H]3C(=O)N[C@@H](C)C(=O)N[C@H](C(=O)NCC#N)Cc4ccc(OCCN)c(c4)-c4cc3ccc4OCCN)c(C)n2)nc1 (racemic) [Compound 529, rac-(8S,11S,14S)-3,18-bis(2-aminoethoxy)-N-(cyanomethyl)-11-methyl-14-[methyl-[rac-(2S)-4-amino-2-[[4-amino-6-(5-butyl-2-pyridyl)-2-methyl-pyridine-3-carbonyl]amino]butanoyl]amino]-10,13-dioxo-9,12-diazatricyclo[13.3.1.12,6]icosa-1(18),2(20),3,5,15(19),16-hexaene-8-carboxamide] | 4 µM |
| Cc1nc(-c2ccc(OC3CCCCCC3)cc2)nc(N)c1C(=O)N[C@@H](CCN)C(=O)N(C)[C@@H]1C(=O)N[C@@H](C)C(=O)N[C@H](C(=O)NCC#N)Cc2ccc(OCCN)c(c2)-c2cc1ccc2OCCN (racemic) [Compound 532, rac-(8S,11S,14S)-3,18-bis(2-aminoethoxy)-N-(cyanomethyl)-11-methyl-14-[methyl-[rac-(2S)-4-amino-2-[[4-amino-2-[4-(cycloheptoxy)phenyl]-6-methyl-pyrimidine-5-carbonyl]amino]butanoyl]amino]-10,13-dioxo-9,12-diazatricyclo[13.3.1.12,6]icosa-1(18),2(20),3,5,15(19),16-hexaene-8-carboxamide] | 0.063 µM |
| CC(=O)Nc1cc(C(=O)N[C@@H](CCN)C(=O)N(C)[C@@H]2C(=O)N[C@@H](C)C(=O)N[C@H](C(=O)NCC#N)Cc3ccc(OCCN)c(c3)-c3cc2ccc3OCCN)c(C)nc1-c1ccc(C(C)(C)C)cc1 (racemic) [Compound 533, rac-(8S,11S,14S)-3,18-bis(2-aminoethoxy)-N-(cyanomethyl)-11-methyl-14-[methyl-[rac-(2S)-2-[[5-acetamido-6-(4-tert-butylphenyl)-2-methyl-pyridine-3-carbonyl]amino]-4-amino-butanoyl]amino]-10,13-dioxo-9,12-diazatricyclo[13.3.1.12,6]icosa-1(18),2(20),3,5,15(19),16-hexaene-8-carboxamide] | 1.5 µM |
| Cc1nc(-c2ccc(OCCC(C)(C)C)cn2)nc(N)c1C(=O)N[C@@H](CCN)C(=O)N(C)[C@@H]1C(=O)N[C@@H](C)C(=O)N[C@H](C(=O)NCC#N)Cc2ccc(OCCN)c(c2)-c2cc1ccc2OCCN (racemic) [Compound 534, rac-(8S,11S,14S)-3,18-bis(2-aminoethoxy)-N-(cyanomethyl)-11-methyl-14-[methyl-[rac-(2S)-4-amino-2-[[4-amino-2-[5-(3,3-dimethylbutoxy)-2-pyridyl]-6-methyl-pyrimidine-5-carbonyl]amino]butanoyl]amino]-10,13-dioxo-9,12-diazatricyclo[13.3.1.12,6]icosa-1(18),2(20),3,5,15(19),16-hexaene-8-carboxamide] | 0.5 µM |
| Cc1nc(-c2ccc(C(C)(C)C)cc2)c(C(F)(F)F)cc1C(=O)N[C@@H](CCN)C(=O)N(C)[C@@H]1C(=O)N[C@@H](C)C(=O)N[C@H](C(=O)NCC#N)Cc2ccc(OCCN)c(c2)-c2cc1ccc2OCCN (racemic) [Compound 537, rac-(8S,11S,14S)-3,18-bis(2-aminoethoxy)-N-(cyanomethyl)-11-methyl-14-[methyl-[rac-(2S)-4-amino-2-[[6-(4-tert-butylphenyl)-2-methyl-5-(trifluoromethyl)pyridine-3-carbonyl]amino]butanoyl]amino]-10,13-dioxo-9,12-diazatricyclo[13.3.1.12,6]icosa-1(18),2(20),3,5,15(19),16-hexaene-8-carboxamide] | 0.25 µM |
| Cc1nc(-c2ccc(OCCC(C)(C)C)cc2)cc(N)c1C(=O)N[C@@H](CCN)C(=O)N(C)[C@@H]1C(=O)N[C@@H](C)C(=O)N[C@H](C(=O)NCC#N)Cc2ccc(OCCN)c(c2)-c2cc1ccc2OCCN (racemic) [Compound 538, rac-(8S,11S,14S)-3,18-bis(2-aminoethoxy)-N-(cyanomethyl)-11-methyl-14-[methyl-[rac-(2S)-4-amino-2-[[4-amino-6-[4-(3,3-dimethylbutoxy)phenyl]-2-methyl-pyridine-3-carbonyl]amino]butanoyl]amino]-10,13-dioxo-9,12-diazatricyclo[13.3.1.12,6]icosa-1(18),2(20),3,5,15(19),16-hexaene-8-carboxamide] | 0.063 µM |
| Cc1nc(-c2cnc(C(C)(C)C)nc2)nc(C)c1C(=O)N[C@@H](CCN)C(=O)N(C)[C@@H]1C(=O)N[C@@H](C)C(=O)N[C@H](C(=O)NCC#N)Cc2ccc(OCCN)c(c2)-c2cc1ccc2OCCN (racemic) [Compound 540, rac-(8S,11S,14S)-3,18-bis(2-aminoethoxy)-N-(cyanomethyl)-11-methyl-14-[methyl-[rac-(2S)-4-amino-2-[[2-(2-tert-butylpyrimidin-5-yl)-4,6-dimethyl-pyrimidine-5-carbonyl]amino]butanoyl]amino]-10,13-dioxo-9,12-diazatricyclo[13.3.1.12,6]icosa-1(18),2(20),3,5,15(19),16-hexaene-8-carboxamide] | 1.5 µM |
| Cc1cc(-c2ccc(C(C)(C)C)cc2)cc(C)c1C(=O)N[C@@H](CCN)C(=O)N(C)[C@@H]1C(=O)N[C@@H](C)C(=O)N[C@H](C(=O)NCC#N)Cc2ccc(O)c(c2)-c2cc1ccc2OCCN (racemic) [Compound 541, rac-(8S,11S,14S)-18-(2-aminoethoxy)-N-(cyanomethyl)-3-hydroxy-11-methyl-14-[methyl-[rac-(2S)-4-amino-2-[[4-(4-tert-butylphenyl)-2,6-dimethyl-benzoyl]amino]butanoyl]amino]-10,13-dioxo-9,12-diazatricyclo[13.3.1.12,6]icosa-1(18),2(20),3,5,15(19),16-hexaene-8-carboxamide] | 0.75 µM |
| Cc1nc(-c2ccc(OC3CCCCC3)cc2)cc(N)c1C(=O)N[C@@H](CCN)C(=O)N(C)[C@@H]1C(=O)N[C@@H](C)C(=O)N[C@H](C(=O)NCC#N)Cc2ccc(OCCN)c(c2)-c2cc1ccc2OCCN (racemic) [Compound 544, rac-(8S,11S,14S)-3,18-bis(2-aminoethoxy)-N-(cyanomethyl)-11-methyl-14-[methyl-[rac-(2S)-4-amino-2-[[4-amino-6-[4-(cyclohexoxy)phenyl]-2-methyl-pyridine-3-carbonyl]amino]butanoyl]amino]-10,13-dioxo-9,12-diazatricyclo[13.3.1.12,6]icosa-1(18),2(20),3,5,15(19),16-hexaene-8-carboxamide] | 0.13 µM |
| Cc1nc(-c2ccc(OC3CCCCCC3)cc2)cc(N)c1C(=O)N[C@@H](CCN)C(=O)N(C)[C@@H]1C(=O)N[C@@H](C)C(=O)N[C@H](C(=O)NCC#N)Cc2ccc(OCCN)c(c2)-c2cc1ccc2OCCN (racemic) [Compound 545, rac-(8S,11S,14S)-3,18-bis(2-aminoethoxy)-N-(cyanomethyl)-11-methyl-14-[methyl-[rac-(2S)-4-amino-2-[[4-amino-6-[4-(cycloheptoxy)phenyl]-2-methyl-pyridine-3-carbonyl]amino]butanoyl]amino]-10,13-dioxo-9,12-diazatricyclo[13.3.1.12,6]icosa-1(18),2(20),3,5,15(19),16-hexaene-8-carboxamide] | 1 µM |
| CCc1nc(-c2ccc(C(C)(C)C)cc2)cc(N)c1C(=O)N[C@@H](CCN)C(=O)N(C)[C@@H]1C(=O)N[C@@H](C)C(=O)N[C@H](C(=O)NCC#N)Cc2ccc(OCCN)c(c2)-c2cc1ccc2OCCN (racemic) [Compound 546, rac-(8S,11S,14S)-3,18-bis(2-aminoethoxy)-N-(cyanomethyl)-11-methyl-14-[methyl-[rac-(2S)-4-amino-2-[[4-amino-6-(4-tert-butylphenyl)-2-ethyl-pyridine-3-carbonyl]amino]butanoyl]amino]-10,13-dioxo-9,12-diazatricyclo[13.3.1.12,6]icosa-1(18),2(20),3,5,15(19),16-hexaene-8-carboxamide] | 0.38 µM |

Reference: US20260274892A1, “MACROCYCLIC BROAD SPECTRUM ANTIBIOTICS” (RQx Pharmaceuticals, Inc., priority 2017, published 2026)
